Data: publication PMC8623467, “Biochemical Characterization of Recombinant Isocitrate Dehydrogenase and Its Putative Role in the Physiology of an Acidophilic Micrarchaeon” (Microorganisms, 2021)

Tested on: T1, MhIDH6x His
T1 construct: gene icd2; full-length; N-terminal 6xHis tag kept (primer: MHHHHHHEEQKKESIS...); C-terminus AIKSA from primer; pBAD202, E. coli Rosetta pRARE; Ni-IMAC and SEC; homodimer only modelled
Assay: NADPH formation at […] nm, Michaelis-Menten fit
Type: biochemical, Candidatus Micrarchaeum harzensis
Settings: 100 mM TRIS/HCl pH 8.0, 28 °C, Mg2+ (5 mM MgCl2 standard mixture)

SMILES	Km (20 mM NADP+ (Figure 4 legend)) [µM]	Km (1 mM DL-isocitrate) [µM]
O=C(O)CC(C(=O)O)C(O)C(=O)O (racemic) [DL-isocitrate]	53 ± 5.63	–
NC(=O)c1ccc[n+]([C@@H]2O[C@H](COP(=O)(O)OP(=O)(O)OC[C@H]3O[C@@H](n4cnc5c(N)ncnc54)[C@H](OP(=O)(O)O)[C@@H]3O)[C@@H](O)[C@H]2O)c1 [NADP^+]	–	1940 ± 120
